Among the data in PubChem BioAssay AID743229 (The Scripps Research Institute Molecular Screening Center, 2013) are EC50 values, retold here.

The target of the test is Trace amine-associated receptor 1 (Homo sapiens) (UniProt Q96RJ0). As to the kind of experiment: human TAAR1 agonist potency, dose response, cell-based, fluorescence, late stage (AID 743229). The following applies: TAAR1-expressing cells, fluorescence agonist read-out.
Trace amine-associated receptor 1 (Homo sapiens), sequence (Q96RJ0 whole entry, looked up, the tested form may be a part): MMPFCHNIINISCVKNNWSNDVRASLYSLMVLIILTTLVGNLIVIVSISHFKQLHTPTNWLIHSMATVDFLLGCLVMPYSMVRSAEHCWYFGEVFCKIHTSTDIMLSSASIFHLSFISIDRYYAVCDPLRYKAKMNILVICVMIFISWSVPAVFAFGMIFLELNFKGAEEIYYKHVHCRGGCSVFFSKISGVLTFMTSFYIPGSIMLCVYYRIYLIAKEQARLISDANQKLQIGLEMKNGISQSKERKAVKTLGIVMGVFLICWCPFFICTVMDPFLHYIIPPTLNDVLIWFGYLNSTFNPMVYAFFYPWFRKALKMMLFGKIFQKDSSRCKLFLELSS

On to `c1ccc(CCn2nnnc2C(c2cccs2)N2CCN(Cc3ccc4c(c3)OCO4)CC2)cc1` (centres undefined), for which the EC50 (as a rule, the concentration that produces a half-maximal response) was 233 nM.

In the case of `CCOC(=O)C(NC(=O)CC)(N1CCc2ccccc2C1)C(F)(F)F` (centres undefined), the EC50 was 42.4 nM.

In the case of `c1ccc2c(c1)CCN(c1nc3cc4c(cc3s1)OCO4)C2`, the concentration giving a half-maximal response (EC50) was 278 nM.

For the molecule `O=C(Nc1ccccc1)Nc1ccncc1`, the 50% effective concentration (EC50) was 807 nM.

Consider `O=C(Nc1ccncc1)Nc1ccc(F)cc1`, for which the half-maximal effective concentration (EC50) was 866 nM.

With `COc1cc(C(=O)CCN2CCC(c3ccccc3)C2)cc(OC)c1OC` (centres undefined), the EC50 is 85.9 nM.

In the case of `O=C(CCN1CCC(c2ccccc2)C1)c1cccs1` (centres undefined), the EC50 is 108 nM.

Turning to `O=C(C(=O)N1CCc2ccccc2C1)c1cn(CC(=O)N2CCCCC2)c2ccccc12`, the concentration for a half-maximal effect (EC50) was 781 nM.

Consider `CC(=NCCc1ccccc1)C1CCOC1=O` (centres undefined), for which the half-maximal effective concentration (EC50) was 36.5 nM.

`CC1(C)CCCN(C(=O)c2coc(=O)c(Br)c2)C1`: the EC50 is 481 nM.

`OCCNc1nc(Nc2ccc(O)cc2)nc2ccccc12`: the EC50 was 804 nM.

In the case of `O=C(CCN1CCC(c2ccccc2)C1)c1ccc2c(c1)OCCO2` (centres undefined), the EC50 is 263 nM.

Regarding `O=C(Nc1cccnc1)Nc1cccc(F)c1`, the 50% effective concentration (EC50) is 3310 nM.

Take `Cc1ccc(NC(=O)CCN2CCc3ccccc3C2)cc1`: the half-maximal effective concentration (EC50) is 1270 nM.

For the molecule `OCCNc1nc(Nc2cccc(O)c2)nc2ccccc12`, the half-maximal effective concentration (EC50) was 257 nM.

For `Cc1cc(C)n(C(CC(=O)N2CCc3ccccc3C2)C(=O)O)n1` (centres undefined), the EC50 was 170 nM.

`Nc1nc(Nc2cccc(F)c2)nc2ccccc12`: the concentration for a half-maximal effect (EC50) is 346 nM.

With `O=C(CCN1CCc2ccccc2CC1)c1ccc2c(c1)OCCO2`, the concentration for a half-maximal effect (EC50) is 340 nM.

As to `O=C(CCCCl)N1CCc2[nH]c3ccccc3c2C1`, the EC50 is 101 nM.

Consider `c1ccc2c3c([nH]c2c1)CCNC3`, for which the concentration for a half-maximal effect (EC50) is 294 nM.

With `Nc1nc(Nc2ccccc2)nc2ccccc12`, the EC50 is 210 nM.

Take `NC(N)=NN=Cc1c(Cl)cccc1Cl`: the EC50 is 219 nM.

Regarding `CCOC(=O)C(NC(C)=O)(N1CCc2ccccc2C1)C(F)(F)F` (centres undefined), the concentration giving a half-maximal response (EC50) is 75 nM.

Take `Cc1cc(N(C)C)nc(Nc2ccccc2)n1`: the concentration for a half-maximal effect (EC50) was 182 nM.
